Test results as given in US20030181510A1, “Inhibition of muscle regeneration following myectomy” (priority 2002, published 2003).

How the values were obtained:
[1] = populations of Southeast Asians consuming 70 mg/day of genistein; cited from earlier work
[2] = tested on: mouse primary satellite cells; test: Fusion of mouse primary satellite cells to myofibers in culture (fusion index); assay type: cell-based; settings: genistein in culture medium, added on first, second or third day of culture; control 0.05% DMSO; day 3 P<0.002, day 5 P<0.0001 (Student's t-test); FIG. 1
Method: Method: Thigh muscle tissue was removed from post-natal day 20-30 mouse pups and the tissue reduced to single cells by a method based largely on a protocol by DiMario and Strohman (DiMario, J. and Strohman, R. C.; 1988). Gastrocnemius and soleus muscles were dissected free of surrounding tissue and finely minced with scissors. The minced tissue was mixed with 0.10% crude collagenase and incubated at 37° C. for 30 minutes with occasional trituration through the bore of a 5 ml glass pipette to break up tissue pieces. The collagenase-tissue slurry was centrifuged briefly to pellet the tissue pieces, muscle fibers, and cells. […] The number of cells was determined and aliquots were appropriately diluted with culture medium so that a known number of satellite cells (80,000) could be added to additional 35 mm collagen-coated dishes for analysis of cell proliferation and fusion. […]
Fusion of satellite cells to form muscle fibers is generally accomplished by removing the source of growth factors in the culture medium. […] As fusion of satellite cells to form myofibers began, the number of nuclei contained within mononucleated cells, primarily satellite cells, and those within myofibers were counted differentially at a magnification of 200×. […]

[3] = tested on: satellite cells derived from mouse gastrocnemius and soleus muscles; test: Satellite cell proliferation in secondary satellite cell cultures (cell count per ocular grid); assay type: cell-based; settings: genistein added to culture medium as in Example 1, on day 1 or day 2; control 0.05% DMSO; P<0.0001 one day after, P<0.00001 at days 2-5 after addition; FIG. 2
Excerpt: Method: To analyze satellite cell proliferation secondary satellite cell cultures derived from mouse gastrocnemius and soleus muscles prepared as in Example 1 were fed fresh medium every day. This generally accepted procedure prolongs proliferation and inhibits differentiation and fusion. Two experimental groups were formed by adding genistein to the culture medium, as in Example 1. […] Living cultures were placed on the stage of a phase-contrast microscope and the number of cells contained within an ocular grid was counted at 100× to 200× total magnification. This cell-counting procedure was performed daily through the sixth day of culture.

For `O=c1c(-c2ccc(O)cc2)coc2cc(O)cc(O)c12` [genistein, 5,7-dihydroxy-3-(4-hydroxyphenyl)-4H-1-benzopyran-4-one], the “ill effects on dietary consumption” value [1] is given as “without obvious ill effects”, the “fusion of satellite cells (fusion index vs control cultures)” value [2] is given as “inhibited the fusion of satellite cells” and the “division of satellite cells (number of cells per reticle-grid vs control cultures)” value [3] is given as “eliminated the division of satellite cells”.
